Measurements reported in ChEMBL document CHEMBL4765340, “Novel potent antiplatelet thrombotic agent derived from biguanide for ischemic stroke” (Eur J Med Chem, 2020).

How the values were obtained:
[1] = Inhibition of thrombin-induced platelet aggregation in mouse platelet isolated from C57BL/6J mouse treated at 200 mg/kg, ig twice a day for 7 days by lumi-aggregometer; assay type: functional; conditions: po, 168 h, time 7 day
Mus musculus = experiment: Antithrombotic activity in collagen-epinephrine induced pulmonary thromboembolism mouse model assessed as protection rate at 200 mg/kg, ig twice a day for 7 days followed by administered collagen-epinephrine relative to control; assay type: functional; conditions: time 7 day
[2] = AUC (0 to infinity) in Sprague-Dawley rat at 200 mg/kg, po measured by HPLC-MS/MS analysis; assay type: ADME, organism-based; parameters: time infinity, route oral, dose 200 mg/kg; conditions: in vivo
[3] = Cmax in Sprague-Dawley rat at 200 mg/kg, po compound dissolved in DMSO measured after 2 hr by HPLC-MS/MS analysis; assay type: ADME, organism-based; parameters: route oral, time 2 hrs, dose 200 mg/kg; conditions: in vivo
[4] = Apparent clearance during terminal phase in Sprague-Dawley rat at 200 mg/kg, po measured by HPLC-MS/MS analysis; assay type: ADME, organism-based; conditions: in vivo
[5] = Half life in Sprague-Dawley rat at 200 mg/kg, po measured by HPLC-MS/MS analysis; assay type: ADME, organism-based; conditions: in vivo

CN(C)C(=N)NC(=N)NS(=O)(=O)C(F)(F)C(F)(F)C(F)(F)C(F)(F)F gave an inhibition in vivo at 200 mg/kg [1] of 9.2% and an Activity (Mus musculus) of 20%.

In the case of CN(C)C(=N)NC(=N)NC(=O)c1ccccc1, the inhibition in vivo at 200 mg/kg [1] is reported as 14.2% and the Activity (Mus musculus) is reported as 20%.

In the case of CN(C)C(=N)NC(=N)NC(=O)/C=C/C(=O)O, the inhibition in vivo at 200 mg/kg [1] is reported as 13.5% and the Activity (Mus musculus) is reported as 20%.

Work on CN(C)C(=N)NC(=N)/N=C/c1ccc(O)cc1 yielded an inhibition in vivo at 200 mg/kg [1] of 11.5% and an Activity (Mus musculus) of 10%.

Compound CN(C)C(=N)NC(=N)/N=C/c1cc(O)c(O)c(O)c1 has an inhibition in vivo at 200 mg/kg [1] of 7.1% and an Activity (Mus musculus) of 0%.

Compound CC(=O)Oc1ccccc1C(=O)O [ASPIRIN] has an inhibition in vivo at 200 mg/kg [1] of 38.8% and an Activity (Mus musculus) of 50%.

CN(C)C(=N)NC(=N)N [METFORMIN] gave an AUC(0-inf) [2] of 78700 ng·h/mL, an inhibition in vivo at 200 mg/kg [1] of 18.5% and a Cmax [3] of 18000 ng/mL. The Activity (Mus musculus) was 30%, the CLz/F [4] was 42.4 mL/min/kg and the half-life [5] was 3.24 h.

Work on Cc1ccc(S(=O)(=O)NC(=N)NC(=N)N(C)C)cc1 yielded an inhibition in vivo at 200 mg/kg [1] of 16.5% and an Activity (Mus musculus) of 30%.

CN(C)C(=N)NC(=N)NC(=O)CCC(=O)O showed an inhibition in vivo at 200 mg/kg [1] of 40.4% and an Activity (Mus musculus) of 40%.

CN(C)C(=N)NC(=N)NC(=O)C(F)(F)F gave an inhibition in vivo at 200 mg/kg [1] of 16.5% and an Activity (Mus musculus) of 30%.

In the case of Cc1ccc(C(=O)NC(=N)NC(=N)N(C)C)cc1, the inhibition in vivo at 200 mg/kg [1] is reported as 18.3% and the Activity (Mus musculus) is reported as 20%.

CC(=O)NC(=N)NC(=N)N(C)C showed an inhibition in vivo at 200 mg/kg [1] of 15.4% and an Activity (Mus musculus) of 10%.

Compound CN(C)C(=N)NC(=N)NS(=O)(=O)CC(F)(F)F has an inhibition in vivo at 200 mg/kg [1] of 29.3% and an Activity (Mus musculus) of 30%.

CN(C)C(=N)NC(=N)NS(=O)(=O)CCC(F)(F)F showed an inhibition in vivo at 200 mg/kg [1] of 24.4% and an Activity (Mus musculus) of 20%.

With CN(C)C(=N)NC(=N)NS(=O)(=O)C(F)F the inhibition in vivo at 200 mg/kg [1] was 35.5% and the Activity (Mus musculus) was 30%.

CN(C)C(=N)NC(=N)NS(C)(=O)=O showed an inhibition in vivo at 200 mg/kg [1] of 47.5% and an Activity (Mus musculus) of 50%.

Work on CN(C)C(=N)NC(=N)/N=C/c1ccc(C#N)cc1 yielded an inhibition in vivo at 200 mg/kg [1] of 9.5% and an Activity (Mus musculus) of 10%.

In the case of CCS(=O)(=O)NC(=N)NC(=N)N(C)C, the inhibition in vivo at 200 mg/kg [1] is reported as 34.3% and the Activity (Mus musculus) is reported as 20%.

In the case of CC(C)S(=O)(=O)NC(=N)NC(=N)N(C)C, the inhibition in vivo at 200 mg/kg [1] is reported as 28.2% and the Activity (Mus musculus) is reported as 40%.

CN(C)C(=N)NC(=N)NS(=O)(=O)C1CCCCC1 gave an inhibition in vivo at 200 mg/kg [1] of 19.5% and an Activity (Mus musculus) of 30%.

CN(C)C(=N)NC(=N)NS(=O)(=O)C(Cl)(Cl)Cl gave an inhibition in vivo at 200 mg/kg [1] of 34.9% and an Activity (Mus musculus) of 40%.

CN(C)C(=N)NC(=N)NC(=O)C1CCCCC1 gave an inhibition in vivo at 200 mg/kg [1] of 24.1% and an Activity (Mus musculus) of 20%.

For CN(C)C(=N)NC(=N)/N=C/c1ccc(N(C)C)cc1, the inhibition in vivo at 200 mg/kg [1] was 6.2% and the Activity (Mus musculus) was 10%.

CN(C)C(=N)NC(=N)NCc1ccccc1 gave an inhibition in vivo at 200 mg/kg [1] of 12.1% and an Activity (Mus musculus) of 20%.
